Like-named read-outs stand apart in the source and are kept apart here.
Tests used:
[1] = tested on: patients with advanced solid tumours; assay: Dose-limiting toxicities in cycle 1 and maximum tolerated dose; type: in vivo, human; conditions: days 1–14, with AUC5 carboplatin day 1, 21-day cycles
Protocol: Initially, at least three patients were treated at each dose level. If no DLT was observed, the dose was escalated for the next cohort of three patients. […] If no further DLT was observed, the next dose level was opened. […] When a dose was concluded to be above the MTD, the preceding lower dose was declared the MTD, but only if six patients had already been treated at this lower dose.
All patients who received at least one dose of study medication were evaluable for toxicity.

advanced solid tumours = assay: Investigator-assessed tumour response (RECIST version 1.1); type: in vivo, human
Protocol: Antitumour activity was assessed by the investigators according to Response Evaluation Criteria in Solid Tumor version 1.1 (RECIST) ([Eisenhauer et al, 2009]) through radiological tumour assessments performed every two cycles and/or at the end of treatment, whichever occurred first.

[2] = in vivo
Protocol: (§1) On cycle 1 days −10, −5, 1, and 14, plasma samples were obtained from all patients before rucaparib dosing and at 15 and 30 min, and at 1, 1.5, 2.5, 4, 6, 10, and 24 h after the start of the rucaparib administration (i.v. infusion (day −10) or oral (days −5, 1, and 14)). On cycle 1 days −10 and −5, samples were also obtained 48 h after the start of rucaparib administration. Rucaparib concentration was determined using liquid chromatography with tandem mass spectrometry.
(§2) Plasma clearance or apparent plasma clearance and steady-state volume of distribution were calculated for rucaparib. The oral bioavailability of rucaparib was calculated as the ratio of dose-normalised AUC0–t or AUCinf (data permitting) determined using oral rucaparib PK data collected on cycle 1 day −5 to that determined using the i.v. PK data collected on cycle 1 day −10. Pharmacokinetic parameters were summarised with the geometric mean and the coefficient of variation (CV). The ratio of Cmax and AUC0–24 of rucaparib administered in combination with chemotherapies to those of rucaparib alone was calculated and summarised, with mean and CV% to evaluate the effect of chemotherapies on the PK of rucaparib for both the i.v. dose (day −10) and oral dose (day −5).
(§3) The oral bioavailability of rucaparib was calculated as the ratio of dose-normalised AUC0-t or AUCinf (data permitting) determined using oral rucaparib PK data collected on cycle 1 day –5 to that determined using the intravenous PK data collected on cycle 1 day –10. The tmax was summarised with medians and ranges. The accumulation ratio after multiple oral rucaparib dosing (once daily) was assessed as the ratio of the AUC0-24 determined using PK collected on cycle 1 day 14 to the AUC0-24 after the cycle 1 day –5 lead-in dose. The ratio of the Cmax on day 14 to the Cmax on day –5 was also calculated. Additionally, the ratio of the AUC0-24 on cycle 1 day 14 to the AUCinf after the cycle 1 day –5 lead-in dose was calculated as an indication for any time-dependent change in rucaparib PK.

[3] = tested on: patients with advanced solid tumours; conditions: single-agent oral rucaparib; ref Kristeleit et al, 2014; cited from earlier work
[4] = Plasma pharmacokinetics of rucaparib (LC-MS/MS, noncompartmental); conditions: for Vd / AUC(0-t) / AUC(0-inf) / Cmax / Tmax / bioavailability: human, plasma; for AUC(0-t) / AUC(0-inf) / Cmax: geometric mean (CV%); for AUC(0-inf): AUCinf; for Tmax: median (minimum, maximum)
Protocol: as §1, §2, §3

[5] = investigator-assessed, RECIST 1.1, All patients (N=85), all arms
[6] = iv, 12 mg, single i.v. dose 12 mg, day –10
[7] = iv, 18 mg, single i.v. dose 18 mg, day –10
[8] = iv, 24 mg, single i.v. dose 24 mg, day –10
[9] = iv, 27 mg, single i.v. dose 27 mg, day –10
[10] = iv, 40 mg, single i.v. dose 40 mg, day –10
[11] = po, 12 mg, single oral dose 12 mg, day –5

Question: Which “MTD of oral rucaparib in the combination” value [1] does the source give for `CNCc1ccc(-c2[nH]c3cc(F)cc4c3c2CCNC4=O)cc1` [rucaparib] here?
Answer: The value was 240 mg once daily (q.d.).

Question: What about the “disease control rate (CR, PR, or SD for ⩾12 weeks)” value (advanced solid tumours; across all cohorts, among patients with available data (77 of 85)) of the same compound?
Answer: The value was 68.8%.

Question: And the “partial responses that were confirmed” value (advanced solid tumours; across all cohorts, of 9 patients with PR)?
Answer: Its value is 7 patients.

Question: What about the “Best response: Complete response” value (advanced solid tumours; [5]) of the same compound?
Answer: The value was 1 (1.2) n (%).

Question: And the “Best response: Partial response” value (advanced solid tumours; [5])?
Answer: The value was 9 (10.6) n (%).

Question: And the “Best response: Progressive disease” value (advanced solid tumours; [5])?
Answer: The value was 24 (28.2) n (%).

Question: And the “Best response: Stable disease” value (advanced solid tumours; [5])?
Answer: The value was 43 (50.6) n (%).

Question: And the “change in t1/2 at steady state compared with a single dose” value ([2]; human)?
Answer: Its value is “no change”.

Question: What about the “Ratio of rucaparib AUC0–24, day 1/day −10” value ([2]; human, iv, 24 mg) of the same compound?
Answer: Its value is 1.02 (15).

Question: What about the “Ratio of rucaparib Cmax, day 1/day −10” value ([2]; human, iv, 24 mg) of the same compound?
Answer: The value was 1.03 (16).

Question: And the “average increase of steady-state AUC0–24 compared with a single dose” value ([2]; human, po)?
Answer: The value was 61%.

Question: What about the CL/F ([2]; human, po, 12 mg) of the same compound?
Answer: The CL/F was 53.4 (39.7) L h^–1.

Question: What about the CL/F ([2]; human, po, 36 mg) of the same compound?
Answer: The CL/F was 32.7 (41.9) L h^–1.

Question: What about the CL/F ([2]; human, po, 48 mg) of the same compound?
Answer: The CL/F was 52.1 (150) L h^–1.

Question: What about the CL/F ([2]; human, po, 72 mg) of the same compound?
Answer: Its CL/F is 65.9 (49.4) L h^–1.

Question: And the “AR, accumulation ratio [AUC0-24, Day 14/AUC0-24, Day -5]” value (“AR, accumulation ratio” for short) ([2]; human, po, 80 mg)?
Answer: The value was 1.19 (-).

Question: And the “ARcm, accumulation ratio of Cmax on day 14 to Cmax on day –5” value (“ARcm, accumulation ratio of Cmax” for short) ([2]; human, po, 80 mg)?
Answer: Its value is 1.50 (-).

Question: What about the “AUC ratio [time-dependent linearity]” value ([2]; human, po, 80 mg) of the same compound?
Answer: The value was 0.655 (-).

Question: What about the “AR, accumulation ratio” value ([2]; human, po, 120 mg) of the same compound?
Answer: The value was 1.49 (104).

Question: What about the “ARcm, accumulation ratio of Cmax” value ([2]; human, po, 120 mg) of the same compound?
Answer: The value was 1.41 (99.8).

Question: What about the “AUC ratio [time-dependent linearity]” value ([2]; human, po, 120 mg) of the same compound?
Answer: Its value is 1.14 (101).

Question: What about the “AR, accumulation ratio” value ([2]; human, po, 180 mg) of the same compound?
Answer: Its value is 1.36 (8.48).

Question: What about the “ARcm, accumulation ratio of Cmax” value ([2]; human, po, 180 mg) of the same compound?
Answer: Its value is 1.11 (31.1).

Question: What about the “AUC ratio [time-dependent linearity]” value ([2]; human, po, 180 mg) of the same compound?
Answer: Its value is 0.785 (13.3).

Question: What about the CL/F ([2]; human, po, 180 mg) of the same compound?
Answer: Its CL/F is 21.4 (68.6) L h^–1.

Question: And the “AR, accumulation ratio” value ([2]; human, po, 240 mg)?
Answer: The value was 1.64 (28.2).

Question: What about the “ARcm, accumulation ratio of Cmax” value ([2]; human, po, 240 mg) of the same compound?
Answer: Its value is 1.30 (29.7).

Question: And the “AUC ratio [time-dependent linearity]” value ([2]; human, po, 240 mg)?
Answer: The value was 1.01 (31.6).

Question: What about the “AR, accumulation ratio” value ([2]; human, po, 360 mg) of the same compound?
Answer: Its value is 1.7 (46.3).

Question: And the “ARcm, accumulation ratio of Cmax” value ([2]; human, po, 360 mg)?
Answer: The value was 1.29 (46.1).

Question: And the “AUC ratio [time-dependent linearity]” value ([2]; human, po, 360 mg)?
Answer: The value was 1.06 (53.1).

Question: What about the “dose dependence of exposure” value [2] of the same compound?
Answer: The value was “increased approximately dose proportionally”.

Question: And the “effect of carboplatin coadministration on rucaparib oral PK” value ([2]; po)?
Answer: The value was “not affected”.

Question: And the “recommended phase II dose” value [3]?
Answer: Its value is 600 mg twice daily.

Question: And the “impact of chemotherapy coadministration on i.v. rucaparib PK” value ([4]; carboplatin+paclitaxel, cisplatin+pemetrexed, or epirubicin+cyclophosphamide)?
Answer: The value was “No apparent impact”.

Question: What about the Vd ([4]; iv, 12 mg) of the same compound?
Answer: Its Vd is 258 L.

Question: And the AUC(0-t) ([4]; iv, 12 mg, AUC0-24, single i.v. dose 12 mg, day –10)?
Answer: Its AUC(0-t) is 549 ng·h/mL.

Question: And the AUC(0-inf) [4, 6]?
Answer: The AUC(0-inf) was 740 ng·h/mL.

Question: And the Cmax [4, 6]?
Answer: The Cmax was 324 ng/mL.

Question: And the Tmax [4, 6]?
Answer: The Tmax was 30 min.

Question: And the Vd ([4]; iv, 18 mg)?
Answer: Its Vd is 234 L.

Question: And the AUC(0-t) ([4]; iv, 18 mg, AUC0-24, single i.v. dose 18 mg, day –10)?
Answer: The AUC(0-t) was 812 ng·h/mL.

Question: What about the AUC(0-inf) [4, 7] of the same compound?
Answer: Its AUC(0-inf) is 976 ng·h/mL.

Question: And the Cmax [4, 7]?
Answer: Its Cmax is 498 ng/mL.

Question: What about the Tmax [4, 7] of the same compound?
Answer: Its Tmax is 30 min.

Question: What about the Vd ([4]; iv, 24 mg) of the same compound?
Answer: Its Vd is 262 L.

Question: What about the AUC(0-t) ([4]; iv, 24 mg, AUC0-24, single i.v. dose 24 mg, day –10) of the same compound?
Answer: Its AUC(0-t) is 1220 ng·h/mL.

Question: And the AUC(0-inf) [4, 8]?
Answer: The AUC(0-inf) was 1710 ng·h/mL.

Question: What about the Cmax [4, 8] of the same compound?
Answer: The Cmax was 627 ng/mL.

Question: And the Tmax [4, 8]?
Answer: The Tmax was 30 min.

Question: What about the Vd ([4]; iv, 27 mg) of the same compound?
Answer: Its Vd is 191 L.

Question: And the AUC(0-t) ([4]; iv, 27 mg, AUC0-24, single i.v. dose 27 mg, day –10)?
Answer: The AUC(0-t) was 1450 ng·h/mL.

Question: And the AUC(0-inf) [4, 9]?
Answer: Its AUC(0-inf) is 1900 ng·h/mL.

Question: What about the Cmax [4, 9] of the same compound?
Answer: The Cmax was 866 ng/mL.

Question: And the Tmax [4, 9]?
Answer: Its Tmax is 22.8 min.

Question: What about the Vd ([4]; iv, 40 mg) of the same compound?
Answer: Its Vd is 113 L.

Question: What about the AUC(0-t) ([4]; iv, 40 mg, AUC0-24, single i.v. dose 40 mg, day –10) of the same compound?
Answer: The AUC(0-t) was 2530 ng·h/mL.

Question: What about the AUC(0-inf) [4, 10] of the same compound?
Answer: The AUC(0-inf) was 2880 ng·h/mL.

Question: And the Cmax [4, 10]?
Answer: Its Cmax is 1610 ng/mL.

Question: And the Tmax [4, 10]?
Answer: The Tmax was 30 min.

Question: What about the bioavailability ([4]; po) of the same compound?
Answer: Its bioavailability is 36%.

Question: And the bioavailability ([4]; po, 12 mg)?
Answer: Its bioavailability is 33.4%.

Question: What about the AUC(0-t) ([4]; po, 12 mg, AUC0-24, single oral dose 12 mg, day –5) of the same compound?
Answer: The AUC(0-t) was 155 ng·h/mL.

Question: What about the AUC(0-inf) [4, 11] of the same compound?
Answer: Its AUC(0-inf) is 225 ng·h/mL.

Question: And the Cmax [4, 11]?
Answer: Its Cmax is 24 ng/mL.

Question: What about the Tmax [4, 11] of the same compound?
Answer: Its Tmax is 60 min.

Question: What about the bioavailability ([4]; po, 36 mg) of the same compound?
Answer: The bioavailability was 45.3%.

Question: And the AUC(0-t) ([4]; po, 36 mg, AUC0-24, single oral dose 36 mg, day –5)?
Answer: Its AUC(0-t) is 696 ng·h/mL.
